Patent publication US20150141437A1, “AMIDOPHENOXYPROPANOLAMINES” (MEDIZINISCHE UNIVERSITÄT WIEN, priority 2012, published 2015)

Key:
[1] = tested on: P. falciparum 3D7 (CQ-sensitive); assay: HRP2-based ELISA growth inhibition, 3D7 strain; type: cell-based; conditions: Plasmodium falciparum, unmarked values: HRP II ELISA, 72 h
Text: (§1) Highly sensitive HRP2-based ELISA and [^3H]-hypoxanthine incorporation assay were used as markers for inhibition of parasite growth as previously described (12, 14). A solvent control and a chloroquine (CQ) control were included in the HRP2-based ELISA. CQ, lumefantrine and artesunate were included as controls in the [^3H]-hypoxanthine assay series.
(§2) The assay protocol of the HRP2-based ELISA is described in more detail in the following paragraphs.
(§3) The P. falciparum clones were maintained in continuous culture as described previously (10). Briefly, 3D7 (CQ-sensitive), NF54, and K1 (CQ-resistant) P. falciparum clones were obtained from MR4/American Type Culture Collection, Manassas, Va., USA under the accession numbers MR4-102 (3D7), MRA-1000 (NF54), and MR4-159 (K1). P. falciparum cultures were maintained in 25 cm^2 flasks. Parasites were cultured in RPMI 1640 (Sigma Aldrich, Austria) medium containing 10% human serum at a hematocrit of 5% (blood group 0 negative) at 37° C. under an atmosphere of 5% CO2, 5% O2 and 90% N2. The medium was changed every 24 to 48 hours. The culture was diluted and fresh erythrocytes were added whenever the parasite density reached >1%.
(§4) Stock solutions of compounds of formula I were prepared in DMSO (10 mg/mL). Stock concentrations of chloroquine and lumefantrine always remained 1 mg/mL and were prepared in 70% ethanol. Coating of culture plates with compounds of formula I and controls: 96 wells culture plates were coated as described previously (11). Working standards were prepared by diluting the stock solutions in RPMI1640 to obtain the desired final concentrations. Serial three-fold dilutions (seven concentrations and one drug-free control well) of the drugs (25 μL/well) were dispensed in duplicate into standard 96-well micro culture plates. Chloroquine was included as a reference drug in all experiments.
(§5) After reaching a parasitemia of 5% or higher, 5 mL of cell medium mixture were centrifuged at 700 g for 5 minutes at room temperature (RT). Packed red cells were resuspended in 3 mL of 5% D-sorbitol (Sigma Aldrich, Austria) in water at RT and immediately centrifuged again at 700 g for 5 minutes at RT followed by three washes with 3 mL of RPMI1640 medium. […].
(§6) Samples were diluted with RPMI1640 medium containing 0.5% Albumax II (GIBCO, Invitrogen, Vienna, Austria) by adding uninfected red blood cells to 1.5% hematocrit and 0.05% parasitemia. 150 μL of this cell medium mixture was then added to each well of 96-well plates precoated with test compounds and incubated at 37° C. for 72 hours in a gas mixture containing 5% CO2, 5% O2, and 90% N2. After 72 hours the plates were frozen at −20° C. until the histidine rich protein II assay (23).
(§7) A highly sensitive HRPII ELISA was used based on two commercially available monoclonal antibodies (Immunology Consultants Laboratory, Inc., Newberg, Oreg.) directed against P. falciparum-specific HRPII: MPFM-55A, an immunoglobulin M antibody served as the primary capture antibody and HRP-conjugated MPFG-55P (Immunology Consultants Laboratory, Inc., Newberg, Oreg.) as secondary antibody. The ELISA was employed to assess growth inhibition as a measure of drug susceptibility as previously described. Optical density was measured at 450 nm using a standard ELISA plate reader (12-13).
(§8) Hyperbolic concentration response curves were fitted to the data points by nonlinear least squares using the solver add-in of the Excel software.
(§9) Indicated in TABLE 2 are the IC50 [μM] values for growth inhibition of the 3D7 (NF54) and K1 strains of P. falciparum for the compounds of formula I indicated with their formula numbers in TABLE 2. Unmarked IC50 values for K1 and 3D7 strains of P. falciparum have been determined by HRP II enzyme linked immunosorbent assay (ELISA) as described above. […]

[2] = tested on: P. falciparum K1 (CQ-resistant); assay: HRP2-based ELISA growth inhibition, K1 strain; type: cell-based; conditions: Plasmodium falciparum, unmarked values: HRP II ELISA, 72 h
Text: as §1, §2, §3, §4, §5, §6, §7, §8, §9

With `O=C(NCc1ccccc1)c1ccccc1OCC(O)CN(C1CC1)C1C2CC3CC(C2)CC1C3` (centres unmarked) [Compound I-20, 2-[3-(Adamantan-2-yl-cyclopropyl-amino)-2-hydroxy-propoxy]-N-benzyl-benzamide] as the compound, how does the IC50 [1] read?
The IC50 was 1260 nM.

And the IC50 [2]?
The IC50 was 100 nM.

With `O=C(NCCCc1ccccc1)c1ccccc1OCC(O)CNC1C2CC3CC(C2)CC1C3` (centres unmarked) [Compound I-11, 2-[3-(Adamantan-2-ylamino)-2-hydroxy-propoxy]-N-(3-phenyl-propyl)-benzamide] as the compound, how does the IC50 [1] read?
The IC50 was 186 nM.

What about the IC50 [2] of the same compound?
The IC50 was 45 nM.

Which results are given for `O=C(NCc1ccccc1)c1ccccc1OCC(O)CN(CCc1ccccc1)C1C2CC3CC(C2)CC1C3` (centres unmarked) [Compound I-22, 2-[3-(Adamantan-2-yl-phenethyl-amino)-2-hydroxy-propoxy]-N-benzyl-benzamide]?
IC50 [1]: 368 nM; IC50 [2]: 251 nM

Which IC50 [1] does the source give for `CCCNCC(O)COc1ccccc1C(=O)Nc1ccc(C)cc1` (centres unmarked) [Compound I-54, 2-(2-Hydroxy-3-propylamino-propoxy)-N-p-tolyl-benzamide] here?
Its IC50 is 276 nM.

And the IC50 [2]?
The IC50 was 85 nM.

Which results are given for `CN(CC(O)COc1ccccc1C(=O)NCc1ccccc1)C1C2CC3CC(C2)CC1C3` (centres unmarked) [Compound I-13, 2-[3-(Adamantan-2-yl-methyl-amino)-2-hydroxy-propoxy]-N-benzyl-benzamide]?
IC50 [1]: 457 nM; IC50 [2]: 168 nM

How did the IC50 [1] turn out when `COc1ccccc1CNC(=O)c1ccccc1OCC(O)CNC12CC3CC(CC(C3)C1)C2` (centres unmarked) [Compound I-2, 2-[3-(Adamantan-1-ylamino)-2-hydroxy-propoxy]-N-(2-methoxy-benzyl)-benzamide] was run?
The IC50 was 680 nM.

What about the IC50 [2] of the same compound?
The IC50 was 435 nM.

For `CCCN(CC(O)COc1ccccc1C(=O)NCc1ccccc1)C1C2CC3CC(C2)CC1C3` (centres unmarked) [Compound I-17, 2-[3-(Adamantan-2-yl-propyl-amino)-2-hydroxy-propoxy]-N-benzyl-benzamide], which IC50 [1] is on record?
Its IC50 is 1190 nM.

What about the IC50 [2] of the same compound?
Its IC50 is 209 nM.

With `COc1ccccc1CN(CC(O)COc1ccccc1C(=O)NCc1ccccc1)C1C2CC3CC(C2)CC1C3` (centres unmarked) [Compound I-21, 2-{3-[Adamantan-2-yl-(2-methoxy-benzyl)-amino]-2-hydroxy-propoxy}-N-benzyl-benzamide] as the compound, how does the IC50 [1] read?
Its IC50 is 4120 nM.

What about the IC50 [2] of the same compound?
Its IC50 is 613 nM.

How did the IC50 [1] turn out when `O=C(NCc1ccccc1)c1ccccc1OCC(O)CNCCC12CC3CC(CC(C3)C1)C2` (centres unmarked) [Compound I-62, 2-[3-(2-Adamantan-1-yl-ethylamino)-2-hydroxy-propoxy]-N-benzyl-benzamide] was run?
Its IC50 is 704 nM.

What about the IC50 [2] of the same compound?
The IC50 was 30 nM.

`CC(NCC(O)COc1ccccc1C(=O)NCc1ccccc1)C12CC3CC(CC(C3)C1)C2` (centres unmarked) [Compound I-28, 2-[3-(1-Adamantan-1-yl-ethylamino)-2-hydroxy-propoxy]-N-benzyl-benzamide] was tested. Which IC50 [1] did it give?
The IC50 was 309 nM.

And the IC50 [2]?
The IC50 was 90 nM.

Which IC50 [1] does the source give for `C#CCOc1ccc(OCC(O)CNCc2ccc(C3(C(F)(F)F)N=N3)cc2)c(C(=O)NCCC(C)C)c1` (centres unmarked) [Compound I-44, 2-{2-Hydroxy-3-[4-(3-trifluoromethyl-3H-diazirin-3-yl)-benzylamino]-propoxy}-N-(3-methyl-butyl)-5-prop-2-ynyloxy-benzamide] here?
Its IC50 is 1310 nM.

What about the IC50 [2] of the same compound?
The IC50 was 466 nM.

With `O=C(NCc1ccccc1)c1ccccc1OCC(O)CNC12CC3CC(CC(C3)C1)C2` (centres unmarked) [Compound I-1, 2-[3-(Adamantan-1-ylamino)-2-hydroxy-propoxy]-N-benzyl-benzamide] as the compound, how does the IC50 [1] read?
Its IC50 is 2460 nM.

And the IC50 [2]?
Its IC50 is 507 nM.

`CN(CC(O)COc1ccccc1C(=O)NCc1ccc(C(C)(C)C)cc1)C1C2CC3CC(C2)CC1C3` (centres unmarked) [Compound I-64, 2-[3-(Adamantan-2-yl-methyl-amino)-2-hydroxy-propoxy]-N-(4-tert-butyl-benzyl)-benzamide] was tested. Which IC50 [1] did it give?
The IC50 was 1480 nM.

What about the IC50 [2] of the same compound?
Its IC50 is 397 nM.

What does the source list for `COc1ccc(CNC(=O)c2ccccc2OCC(O)CNC2C3CC4CC(C3)CC2C4)cc1` (centres unmarked) [Compound I-8, 2-[3-(Adamantan-2-ylamino)-2-hydroxy-propoxy]-N-(4-methoxy-benzyl)-benzamide]?
IC50 [1]: 140 nM; IC50 [2]: 13 nM

Which IC50 [1] does the source give for `COc1ccccc1CNC(=O)c1ccccc1OCC(O)CNCC12CC3CC(CC(C3)C1)C2` (centres unmarked) [Compound I-29, 2-{3-[(Adamantan-1-ylmethyl)-amino]-2-hydroxy-propoxy}-N-(2-methoxy-benzyl)-benzamide] here?
Its IC50 is 97 nM.

And the IC50 [2]?
The IC50 was 5 nM.

With `COc1ccc(CNC(=O)c2ccccc2OCC(O)CN2CCN(c3cccc(C)c3C)CC2)cc1` (centres unmarked) [Compound I-51, 2-{3-[4-(2,3-Dimethyl-phenyl)-piperazin-1-yl]-2-hydroxy-propoxy}-N-(4-methoxy-benzyl)-benzamide] as the compound, how does the IC50 [1] read?
The IC50 was 2020 nM.

What about the IC50 [2] of the same compound?
The IC50 was 134 nM.

Which results are given for `O=C(NCc1ccccc1)c1ccccc1OCC(O)CN(CCCc1ccccc1)C1C2CC3CC(C2)CC1C3` (centres unmarked) [Compound I-23, 2-{3-[Adamantan-2-yl-(3-phenyl-propyl)-amino]-2-hydroxy-propoxy}-N-benzyl-benzamide]?
IC50 [1]: 226 nM; IC50 [2]: 34 nM

For `O=C(NCc1ccccc1)c1ccccc1OCC(O)CNC1CCCCCCC1` (centres unmarked) [Compound I-53, N-Benzyl-2-(3-cyclooctylamino-2-hydroxy-propoxy)-benzamide], which IC50 [1] is on record?
The IC50 was 197 nM.

And the IC50 [2]?
Its IC50 is 29 nM.

How did the IC50 [1] turn out when `CCCNC(=O)c1ccccc1OCC(O)CNC1C2CC3CC(C2)CC1C3` (centres unmarked) [Compound I-12, 2-[3-(Adamantan-2-ylamino)-2-hydroxy-propoxy]-N-propyl-benzamide] was run?
Its IC50 is 611 nM.

And the IC50 [2]?
Its IC50 is 92 nM.

`COc1ccccc1CNC(=O)c1ccccc1OCC(O)CNC1C2CC3CC(C2)CC1C3` (centres unmarked) [Compound I-7, 2-[3-(Adamantan-2-ylamino)-2-hydroxy-propoxy]-N-(2-methoxy-benzyl)-benzamide] was tested. Which IC50 [1] did it give?
The IC50 was 198 nM.

And the IC50 [2]?
The IC50 was 99 nM.

How did the IC50 [1] turn out when `O=C(NCc1ccccc1)c1ccccc1OCC(O)CNC1CCCCCCCCCCC1` (centres unmarked) [Compound I-52, N-Benzyl-2-(3-cyclododecylamino-2-hydroxy-propoxy)-benzamide] was run?
Its IC50 is 561 nM.

And the IC50 [2]?
Its IC50 is 52 nM.

Which results are given for `O=C(NCc1ccccc1)c1ccccc1OCC(O)CNCC12CC3CC(CC(C3)C1)C2` (centres unmarked) [Compound I-27, 2-{3-[(Adamantan-1-ylmethyl)-amino]-2-hydroxy-propoxy}-N-benzyl-benzamide]?
IC50 [1]: 177 nM; IC50 [2]: 50 nM

`CCCN(CC(O)COc1ccccc1C(=O)NCc1ccccc1OC)C1C2CC3CC(C2)CC1C3` (centres unmarked) [Compound I-18, 2-[3-(Adamantan-2-yl-propyl-amino)-2-hydroxy-propoxy]-N-(2-methoxy-benzyl)-benzamide] was tested. Which IC50 [1] did it give?
The IC50 was 1570 nM.

What about the IC50 [2] of the same compound?
Its IC50 is 349 nM.

Which results are given for `O=C(NCCc1ccccc1)c1ccccc1OCC(O)CNC1C2CC3CC(C2)CC1C3` (centres unmarked) [Compound I-9, 2-[3-(Adamantan-2-ylamino)-2-hydroxy-propoxy]-N-phenethyl-benzamide]?
IC50 [1]: 264 nM; IC50 [2]: 29 nM

With `O=C(NCc1ccccc1)c1ccccc1OCC(O)CNC1C2CC3CC(C2)CC1C3` (centres unmarked) [Compound I-6, 2-[3-(Adamantan-2-ylamino)-2-hydroxy-propoxy]-N-benzyl-benzamide] as the compound, how does the IC50 [1] read?
The IC50 was 121 nM.

And the IC50 [2]?
The IC50 was 29 nM.
